In one assay the target is T1, human recombinant COX-2 (Homo sapiens, UniProt P35354).
T1 sequence (P35354 18-604): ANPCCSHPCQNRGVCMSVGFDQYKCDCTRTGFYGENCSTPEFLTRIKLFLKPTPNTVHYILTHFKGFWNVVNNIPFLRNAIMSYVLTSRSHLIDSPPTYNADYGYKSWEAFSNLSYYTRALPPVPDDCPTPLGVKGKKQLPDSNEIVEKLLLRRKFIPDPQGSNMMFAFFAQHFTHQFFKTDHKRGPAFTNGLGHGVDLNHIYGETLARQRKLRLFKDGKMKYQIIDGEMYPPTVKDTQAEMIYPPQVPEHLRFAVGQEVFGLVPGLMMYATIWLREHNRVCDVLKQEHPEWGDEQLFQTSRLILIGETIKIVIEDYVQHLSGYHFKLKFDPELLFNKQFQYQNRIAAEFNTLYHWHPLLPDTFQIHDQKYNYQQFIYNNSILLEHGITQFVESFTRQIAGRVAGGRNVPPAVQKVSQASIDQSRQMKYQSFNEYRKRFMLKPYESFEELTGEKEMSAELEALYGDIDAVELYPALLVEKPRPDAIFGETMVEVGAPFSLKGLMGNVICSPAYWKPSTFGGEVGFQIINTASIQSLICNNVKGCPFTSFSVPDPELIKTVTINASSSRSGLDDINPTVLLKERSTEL
Nature of the assay: In vitro COX-2 inhibition, enzyme immunoassay. Type of assay: biochemical. Conditions: for COX-2 S. I. (in vitro COX-2 selectivity index, COX-1/COX-2): ratio COX-1 IC50/COX-2 IC50.

For another assay, the target named is T2, ovine COX-1 (Ovis aries, UniProt P05979).
T2 sequence (P05979 25-600): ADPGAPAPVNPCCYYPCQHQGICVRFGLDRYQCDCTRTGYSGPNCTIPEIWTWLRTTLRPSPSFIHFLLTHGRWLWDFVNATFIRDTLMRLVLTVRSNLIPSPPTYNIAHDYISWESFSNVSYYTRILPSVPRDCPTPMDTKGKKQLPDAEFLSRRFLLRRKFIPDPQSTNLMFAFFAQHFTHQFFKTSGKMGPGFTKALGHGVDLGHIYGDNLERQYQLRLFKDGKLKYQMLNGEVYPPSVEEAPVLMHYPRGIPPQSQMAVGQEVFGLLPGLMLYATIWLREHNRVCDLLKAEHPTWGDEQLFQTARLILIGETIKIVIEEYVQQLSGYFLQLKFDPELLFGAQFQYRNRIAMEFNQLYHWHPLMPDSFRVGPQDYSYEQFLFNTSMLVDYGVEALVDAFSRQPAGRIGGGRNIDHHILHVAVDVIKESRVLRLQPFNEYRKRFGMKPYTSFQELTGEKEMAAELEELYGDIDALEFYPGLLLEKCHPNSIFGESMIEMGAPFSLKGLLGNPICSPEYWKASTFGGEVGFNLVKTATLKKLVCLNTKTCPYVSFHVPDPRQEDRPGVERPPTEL
Nature of the assay: In vitro COX-1 inhibition, enzyme immunoassay. Type of assay: biochemical.

The values below come from article PMC9575004 (Journal of Molecular Structure, 2022).

For the compound `CCCCCCCCCCCC1=C(O)C(=O)C=C(O)C1=O` [Compound 1, 2,5-dihydroxy-3-undecyl-1,4-benzoquinone], on human recombinant COX-2, the IC50 came out at 2.98 µM and the “COX-2 S. I. (in vitro COX-2 selectivity index, COX-1/COX-2)” value is listed as 2.15. In addition, the half-maximal inhibitory concentration (IC50) against ovine COX-1 turned out to be 6.42 µM.
`CCCCCCCCCCCC1=C(O)C(=O)C=C(NC)C1=O` [Compound 2, 2-Hydroxy-5-(methylamino)-3-undecylcyclohexa-2,5-diene-1,4-dione]: at human recombinant COX-2, the half-maximal inhibitory concentration (IC50) was determined as 3.1 µM and the “COX-2 S. I. (in vitro COX-2 selectivity index, COX-1/COX-2)” value is 2.11. Further, on ovine COX-1, the midpoint of inhibition, the IC50, lay at 6.54 µM.
Turning to `CCCCCCCCCCCC1=C(O)C(=O)C=C(NCCN(C)C)C1=O` [Compound 3, 5-(2-(Dimethylamino)ethylamino)-2-hydroxy-3-undecylcyclohexa-2,5-diene-1,4-dione], on human recombinant COX-2, the half-inhibitory concentration (IC50) amounted to 1.65 µM and the “COX-2 S. I. (in vitro COX-2 selectivity index, COX-1/COX-2)” value amounted to 2.17. In addition, the half-maximal inhibitory concentration (IC50) at ovine COX-1 amounted to 3.58 µM.
Turning to `CCCCCCCCCCCC1=C(O)C(=N/C)/C=C(O)C/1=N/C` [Compound 5, (3E, 6E)-3,6-bis(Methylimino)-2-undecylcyclohexa-1,4-diene-1,4-diol], the half-maximal inhibitory concentration (IC50) at human recombinant COX-2 is 2.56 µM; against ovine COX-1, 7.65 µM. Further, the “COX-2 S. I. (in vitro COX-2 selectivity index, COX-1/COX-2)” value at human recombinant COX-2 is 2.98.
For `CCCCCCCCCCCC1=C(O)C(=N/CC)/C=C(O)C/1=N/CC` [Compound 6, (3E, 6E)-3,6-bis(Ethylimino)-2-undecylcyclohexa-1,4-diene-1,4-diol], the IC50 stood at 2.15 µM at human recombinant COX-2 and 6.85 µM against ovine COX-1. Besides, on human recombinant COX-2, the “COX-2 S. I. (in vitro COX-2 selectivity index, COX-1/COX-2)” value was found to be 3.18.
For `CCCCCCCCCCCc1c2oc3cccnc3nc-2cc(O)c1=O` [Compound 7, 8-hydroxy-6-undecyl-7H-benzo[b]pyrido[2,3-e][1,4]oxazin-7-one], the IC50 was 1.56 µM at human recombinant COX-2 and 3.19 µM at ovine COX-1. Further, at human recombinant COX-2, the “COX-2 S. I. (in vitro COX-2 selectivity index, COX-1/COX-2)” value is given as 2.04.
For the compound `CCCCCCCCCCCC1=C(OC(C)=O)C(=O)C=C(OC(C)=O)C1=O` [Compound 8, 3,6-Dioxo-2-undecylcyclohexa-1,4-diene-1,4-diyl diacetate], on human recombinant COX-2, the concentration for half-maximal inhibition (IC50) worked out at 1.23 µM and the “COX-2 S. I. (in vitro COX-2 selectivity index, COX-1/COX-2)” value is recorded as 1.83. In addition, the IC50 against ovine COX-1 stood at 2.25 µM.
